Test results taken from the METLIN SMRT retention time set (Domingo-Almenara et al. 2019).

Assay: gradient 5% acetonitrile 3 min, to 50% in 2 min, to 85% in 15 min, held 3 min, 100 µL/min
Details: column: Zorbax Extend-C18 2.1 x 50 mm; eluents: water / acetonitrile, 0.1% formic acid
How it was run: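 Over 3 months, pure standards in mixtures of ~100 molecules were run by HPLC coupled to a quadrupole time-of-flight mass spectrometer in positive and negative ionization mode. The column was a Zorbax Extend-C18 (2.1 × 50 mm, 1.8 μm) at 100 μL/min, eluted with water and acetonitrile each holding 0.1% formic acid, with 40 μL dead and 900 μL dwell volumes. Retention time was determined from adduct peaks chosen by software and checked manually.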

For COc1cccc(-c2noc(Cc3nnc(-c4ccc(C)c(F)c4)o3)n2)c1OC, the RP-LC retention time was 1010 s.

Molecule CCOc1ccc(/C=C/C(=O)Nc2nc(-c3ccccc3)cs2)cc1 has an RP-LC retention time of 1140 s.

For COc1ccc(CCC(=O)N(C)CCc2noc(COc3ccc(OC)cc3)n2)cc1, the RP-LC retention time was 911 s.

Molecule O=S(=O)(c1cc(-c2nnc(C3CC3)o2)co1)N1CCN(c2ccccc2F)CC1 has an RP-LC retention time of 986 s.

Molecule CC(C)Oc1ccc(CNC(=O)c2ccc3c(c2)N(C)C(=O)c2ccccc2O3)cc1 has an RP-LC retention time of 958 s.

With COc1ccc(NC(=O)C(C)C2CCN(C(=O)Nc3ccc(F)cc3)CC2)c(OC)c1 (stereo not given) the RP-LC retention time was 871 s.

Molecule Cn1cnc(S(=O)(=O)N2CCC(C(=O)NCc3ccc(Cl)cc3)CC2)c1 has an RP-LC retention time of 702 s.

Work on O=C(CN1C(=O)NC2(CCCCC2)C1=O)NCc1ccccc1F yielded an RP-LC retention time of 733 s.

In the case of Cc1c(Cl)cccc1NC(=O)C1CCCN(c2nc3c(s2)c(C)nn3-c2cccc(F)c2)C1 (stereo not given), the RP-LC retention time is reported as 1200 s.

In the case of c1ccc(N2CCN(c3c4c(nc5ncnn35)CCC4)CC2)nc1, the RP-LC retention time is reported as 563 s.

Work on CCCOC(=O)C1=CN(C)S(=O)(=O)N=C1C yielded an RP-LC retention time of 796 s.

Molecule Cc1nc(CC(=O)NC(C)c2ccccc2)sc1C(=O)NCC(C)C (stereo not given) has an RP-LC retention time of 763 s.

CCCNC(=O)CCc1nc2ccccc2n(CC(=O)NC(C)CC)c1=O (stereo not given) gave an RP-LC retention time of 688 s.

Molecule Cn1c(=O)c2c(-c3ccc(Cl)cc3)c(C#N)c(N)nc2n(C)c1=O has an RP-LC retention time of 814 s.

For COc1ccc2[nH]c3c(c2c1)CCN1C(=O)N(c2ccccc2OC)C(=O)C31C (stereo not given), the RP-LC retention time was 884 s.

For CCN(CC)CCNC(=O)C1CCCN(c2ncc(-c3ccc(F)cc3)cn2)C1 (stereo not given), the RP-LC retention time was 688 s.

In the case of Fc1cccc(Cl)c1C1SCc2nc3ccccc3n21 (stereo not given), the RP-LC retention time is reported as 845 s.

In the case of CCCN(C(=O)c1ccco1)c1nc(-c2ccc(C)cc2)cs1, the RP-LC retention time is reported as 1390 s.

Work on O=C(Cn1cnc2nc(-c3cccnc3)ncc2c1=O)Nc1ccc2c(c1)OCO2 yielded an RP-LC retention time of 826 s.

Work on Cc1cc(C)n(Cc2nc(-c3ccc(NC(=O)c4ccsc4)cc3)oc2C)n1 yielded an RP-LC retention time of 940 s.

COc1cccc(-n2cc(C(=O)OCCc3ccccn3)c3ccccc3c2=O)c1 showed an RP-LC retention time of 714 s.

For O=C(NOCC1CC1)c1cc(Br)c(F)c(F)c1Nc1ccc(I)cc1Cl, the RP-LC retention time was 1170 s.

Molecule OC(CN1CCCCC1)c1ccc(/C=C/c2ccc(Cl)cc2)cc1 (stereo not given) has an RP-LC retention time of 766 s.

For O=C1C(O)C2(CCCCC2)N1C1CCN(Cc2ccc(F)c(F)c2)CC1 (stereo not given), the RP-LC retention time was 548 s.

In the case of COc1ccccc1NC(=O)Cc1csc2nc(-c3ccc(OC)c(OC)c3)cn12, the RP-LC retention time is reported as 734 s.

Molecule COc1ccc(N2C(=O)C3N=NN(Cc4nc(-c5ccc(C)cc5)no4)C3C2=O)cc1OC (stereo not given) has an RP-LC retention time of 915 s.

CCCN1C(=O)NC(=O)C2NCNC21 (stereo not given) showed an RP-LC retention time of 604 s.

CC(C)CN1CCCn2ccnc2C1C1CCN(C(=O)C(C)C)CC1 (stereo not given) gave an RP-LC retention time of 587 s.

Cn1ncc2c3ccccc3n(CCCC(=O)N3CCCCC3)c2c1=O gave an RP-LC retention time of 824 s.

Work on O=C(Cc1ccc(F)cc1)Nc1nnc(C2CC(=O)N(c3ccccc3)C2)o1 (stereo not given) yielded an RP-LC retention time of 716 s.

For NC(=O)C1CCN(Cc2nc(-c3ccc(N4CCSCC4)nc3)no2)CC1, the RP-LC retention time was 597 s.

CCC(C)C(NC(=O)Cc1ccc(OC)c(Cl)c1)C(=O)Nc1nc2ccccc2[nH]1 (stereo not given) showed an RP-LC retention time of 762 s.

COc1cc(Cl)ccc1-c1nc(-c2ccc3oc(C)nc3c2)no1 showed an RP-LC retention time of 1140 s.

CCc1nnc2nc(N3CCN(C(=O)COc4ccc(F)cc4)CC3)cc(C)n12 gave an RP-LC retention time of 621 s.

Molecule COc1nc2ccccc2nc1N1CCCC(C(=O)Nc2cccc(Br)c2)C1 (stereo not given) has an RP-LC retention time of 1300 s.

With Cc1ccn2cc(C(=O)NCCN3CCc4ccccc4C3)nc2c1 the RP-LC retention time was 565 s.

Cn1nccc1-c1csc(S(=O)(=O)NC2CCCC2)c1 gave an RP-LC retention time of 806 s.

Molecule Cc1ccc(-c2cc3c(=O)n(Cc4noc(-c5ccc6c(c5)OCO6)n4)ccn3n2)c(C)c1 has an RP-LC retention time of 1120 s.

In the case of CC(C)n1cnnc1CC1CN(C(=O)Nc2ccc(Cl)cc2C(F)(F)F)C1, the RP-LC retention time is reported as 693 s.

For Cc1nc(C2CCOCC2)n(C2CCN(S(=O)(=O)c3cccc(Cl)c3)C2)n1 (stereo not given), the RP-LC retention time was 738 s.

Molecule COc1cccc(-c2ccc(=O)n(CCc3nc(-c4ccc5c(c4)OCO5)no3)n2)c1 has an RP-LC retention time of 804 s.

Molecule CCn1cc(-c2nc(CC(=O)Nc3ccc(F)cc3C)cs2)c2cccnc21 has an RP-LC retention time of 902 s.

In the case of COC(=O)c1sc(NC(=O)COc2ccc(Cl)cc2)nc1C, the RP-LC retention time is reported as 963 s.

Molecule COc1ccc(Cl)cc1NS(=O)(=O)c1ccc(-c2nnc(C3CCC3)o2)o1 has an RP-LC retention time of 958 s.

For O=C(NCc1cccs1)c1ccc(-n2nc(N3CCCC3)ccc2=O)cc1, the RP-LC retention time was 765 s.

Work on Cc1cc(=O)n(CC(=O)NCc2ccccc2)c(N)n1 yielded an RP-LC retention time of 570 s.

OCC1CN(c2ccncn2)CC12CCN(Cc1c[nH]c3ccccc13)CC2 (stereo not given) showed an RP-LC retention time of 579 s.

COCCn1cc2c3c(cccc31)CN(C(=O)Nc1ccc(OC)cc1)CC2 gave an RP-LC retention time of 833 s.

CC(C)NC(=O)c1ccc(OCC2CCN(C(=O)c3cc(F)ccc3Cl)CC2)cc1 showed an RP-LC retention time of 891 s.

With CCNC(=O)c1n[nH]c2c1CC(C)CC2 (stereo not given) the RP-LC retention time was 685 s.

CCCn1cc(CCNC(=O)Nc2ccc(Br)c(C)c2)c2cccnc21 gave an RP-LC retention time of 902 s.

For COc1ccc(-c2nc3cc(C)ccc3o2)cc1NC(=O)NCc1ccco1, the RP-LC retention time was 1010 s.

CC(C)NC(=O)N(CC(=O)N1CCc2sccc2C1COc1ccccc1)C(C)C (stereo not given) gave an RP-LC retention time of 892 s.

In the case of Cc1nn(C(C)C)c(C)c1S(=O)(=O)N1CCN(C(=O)c2ccsc2)CC1, the RP-LC retention time is reported as 775 s.

In the case of CCOCCCNC(=O)c1cc2c(n(-c3ccc(C(F)(F)F)cc3)c1=O)CCCC2=O, the RP-LC retention time is reported as 853 s.

In the case of Cc1ccc(C)c(Cn2nnc(C(=O)O)c2C)c1, the RP-LC retention time is reported as 783 s.

CCCC(NC(=O)c1cccs1)C(=O)Nc1nc2ccccc2[nH]1 (stereo not given) showed an RP-LC retention time of 668 s.

With CNC(=O)[C@@H]1CN(C(=O)CCc2c(C)noc2C)C[C@H]1c1n[nH]c(C)n1 the RP-LC retention time was 568 s.

COc1ccc(C(=O)N2CCC3(CC2)NC(=O)c2cc(F)ccc2N3C)cc1 showed an RP-LC retention time of 730 s.

COC(=O)c1cccc(Nc2c(-c3ccc(C)cc3)nc3cnc(Br)cn23)c1 gave an RP-LC retention time of 994 s.

CCCc1ccc(S(=O)(=O)N2CCC3(CC2)NCCN=C3NCc2ccccc2)cc1 gave an RP-LC retention time of 809 s.

With Cc1ccnc(N2CCCC(C(=O)NCCCN3CCN(c4cc(Cl)ccc4C)CC3)C2)n1 (stereo not given) the RP-LC retention time was 670 s.

CC(C)n1nnc2cc(S(=O)(=O)N3CCCC(C(=O)N4CCCCCC4)C3)ccc21 (stereo not given) showed an RP-LC retention time of 886 s.

For Cc1nc2cc3c(cc2n1CC(=O)Nc1cccc(C(F)(F)F)c1)OCCO3, the RP-LC retention time was 712 s.

With Cc1cc(C)n(-c2ccnc(N3CCC(C(=O)NCc4ccc(F)cc4)CC3)n2)n1 the RP-LC retention time was 833 s.

Work on Cc1cnc(C(=O)N2CCCCCCNC(=O)[C@@H]3CCC[C@@H]32)cn1 yielded an RP-LC retention time of 649 s.

O=C(Cn1cnc2nc3c(cc2c1=O)CCCC3)Nc1ccccc1F showed an RP-LC retention time of 703 s.

In the case of CCOC(=O)C1=C(CN2CCCC(c3ccccc3)C2)NC(=O)NC1c1cccc(OC)c1OC (stereo not given), the RP-LC retention time is reported as 695 s.

Work on Cc1nc(-c2ccc3c(c2)n(CC(=O)NC2CCC(C)CC2)c(=O)n3C(C)C)no1 (stereo not given) yielded an RP-LC retention time of 897 s.

O=C(NC1CCCCC1)C1CCCN(C(=O)c2ccc(Cl)cc2)C1 (stereo not given) gave an RP-LC retention time of 855 s.

COc1ccccc1-n1ccn(Cc2nc(-c3ccc(C(C)(C)C)cc3)no2)c(=O)c1=O showed an RP-LC retention time of 1020 s.

In the case of COc1ccccc1-c1nc(Cn2c(=O)c3c(C)cc(C)nc3n(C)c2=O)c(C)o1, the RP-LC retention time is reported as 1070 s.

Molecule Cc1ccn2c(NC(=O)c3ccc(C)c(C)c3)c(-c3ccc(F)cc3)nc2c1 has an RP-LC retention time of 737 s.

Work on Cc1nn2c(CNC(=O)c3cccs3)c(-c3ccccc3)nc2s1 yielded an RP-LC retention time of 797 s.

For Cc1cccc(C(=O)NCc2nn(C)c3ccccc23)c1, the RP-LC retention time was 814 s.

For Cc1cc2nn(CC(=O)Nc3ccc(F)cc3Cl)c(=O)n2c(Nc2ccccc2)n1, the RP-LC retention time was 1030 s.

COc1ccc(S(=O)(=O)N2CCCC(C(=O)NCC3CCCO3)C2)cc1OC (stereo not given) showed an RP-LC retention time of 684 s.

CCOC(=O)c1noc2ncnc(N3CCc4ccccc4C3)c12 gave an RP-LC retention time of 1010 s.

COc1ccccc1NC(=O)Cn1nc2cc(C)nc(Nc3ccccc3)n2c1=O gave an RP-LC retention time of 1020 s.

Work on Cc1ccccc1N1CCN(CCc2nnc3n2CCCC3)CC1 yielded an RP-LC retention time of 573 s.

For Cc1cc(C)cc(S(=O)(=O)N2CCCN(c3ccc(=O)n(-c4ccccc4)n3)CC2)c1, the RP-LC retention time was 901 s.

Work on CCOC(=O)N1CCC(NC(=O)c2cc3sc(Cl)cc3n2CC)CC1 yielded an RP-LC retention time of 985 s.

For COc1ccccc1C(CNC(=O)c1cc(=O)c2cc(Cl)ccc2o1)N(C)C (stereo not given), the RP-LC retention time was 647 s.

Cn1c(=O)c2c(-c3ccc(F)cc3)c(C#N)c(N)nc2n(C)c1=O showed an RP-LC retention time of 757 s.

With O=C(NC1CC1)c1ccc(OCC2CCCN(C(=O)c3c(F)cccc3F)C2)cc1 (stereo not given) the RP-LC retention time was 820 s.

With CO[C@H]1C(=O)N(C(C)C)[C@H]1C1CCN(S(=O)(=O)Cc2ccccc2)CC1 the RP-LC retention time was 829 s.

Molecule Cc1nc(-c2cc(S(=O)(=O)NCC(=O)NC3CCCC3)c(C)s2)no1 has an RP-LC retention time of 774 s.

Work on COc1cc(NC(=O)c2cc3cc4cc(OC)ccc4nc3o2)cc(OC)c1 yielded an RP-LC retention time of 971 s.

Molecule CCOC(=O)C1CCN(c2nc(=O)n(CC(=O)Nc3ccc(C)cc3)c3ccccc23)CC1 has an RP-LC retention time of 843 s.

Cc1ccc(NC(=O)C2CCCN(c3cc(=O)n(C)c(=O)n3C)C2)cc1 (stereo not given) gave an RP-LC retention time of 725 s.
